From US20240190874A1, “SMALL MOLECULE DEGRADERS OF ANDROGEN RECEPTOR” (THE REGENTS OF THE UNIVERSITY OF MICHIGAN, priority 2021, published 2024)
Where two headings read alike, the source gives them in different places.

Key:
Format in all cases: cell-based
AR = molecular target: T1, AR (Homo sapiens, UniProt P10275); test: Degradation of AR in VCaP cells; conditions: VCaP cells; for Dmax: VCaP
T1 construct: Degradation of AR; Cellular potency; host or cells: VCaP cells
T1 sequence (P10275 1-920): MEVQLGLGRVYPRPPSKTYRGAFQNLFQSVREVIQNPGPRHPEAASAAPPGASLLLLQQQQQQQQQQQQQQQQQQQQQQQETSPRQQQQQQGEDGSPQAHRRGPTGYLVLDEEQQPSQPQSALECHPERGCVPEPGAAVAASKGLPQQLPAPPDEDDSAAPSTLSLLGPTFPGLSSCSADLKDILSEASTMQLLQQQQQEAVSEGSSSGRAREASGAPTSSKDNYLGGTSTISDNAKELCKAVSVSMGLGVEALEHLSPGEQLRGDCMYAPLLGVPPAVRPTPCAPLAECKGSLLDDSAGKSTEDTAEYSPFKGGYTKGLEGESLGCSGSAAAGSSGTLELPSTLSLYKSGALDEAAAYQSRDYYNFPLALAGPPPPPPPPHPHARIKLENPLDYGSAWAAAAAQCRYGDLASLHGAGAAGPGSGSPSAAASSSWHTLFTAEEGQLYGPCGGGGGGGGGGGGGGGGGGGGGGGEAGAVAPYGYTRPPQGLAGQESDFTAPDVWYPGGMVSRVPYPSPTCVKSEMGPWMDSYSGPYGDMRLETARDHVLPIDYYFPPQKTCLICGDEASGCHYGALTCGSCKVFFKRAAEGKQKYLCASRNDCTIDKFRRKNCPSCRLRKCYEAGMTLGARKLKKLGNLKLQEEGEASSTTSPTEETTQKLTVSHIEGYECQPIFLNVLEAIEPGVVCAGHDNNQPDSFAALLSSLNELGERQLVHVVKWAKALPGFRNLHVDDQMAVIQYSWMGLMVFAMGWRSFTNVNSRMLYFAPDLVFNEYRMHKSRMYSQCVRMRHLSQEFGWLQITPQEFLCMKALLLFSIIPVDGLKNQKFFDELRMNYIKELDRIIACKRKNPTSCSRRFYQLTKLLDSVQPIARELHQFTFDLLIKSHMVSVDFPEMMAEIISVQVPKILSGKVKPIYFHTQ
Protocol: (§1) Biological Assays. LNCaP and VCaP cells used were purchased from American Type Culture Collection (ATCC). LNCaP were grown in RPMI 1640 (Invitrogen) and VCaP cells were grown in DMEM with Glutamax (Invitrogen). All of the cells were supplemented with 10% fetal bovine serum (Invitrogen) at 37° C. in a humidified 5% CO2 incubator.

VCaP cells = test: Cellular potency (IC50) in VCaP cells
Protocol: as §1

LNCaP cells = test: Cellular potency (IC50) in LNCaP cells
Protocol: as §1

C[C@H]1CC2(CCN(c3ccc(CN4CCN(C5CN(c6cc7c(cc6F)C(=O)N(C6CCC(=O)NC6=O)C7=O)C5)CC4)nn3)CC2)CN1c1ccc(C#N)c(Cl)c1 (stereo partly shown) [compound 174]
DC50 (AR): < 1 nM | IC50 (VCaP cells; Homo sapiens, VCaP): < 10 nM | IC50 (LNCaP cells; Homo sapiens, LNCaP): < 10 nM

C[C@H]1CC2(CCN(c3ccc(C(=O)N4CCC(CN5CCOc6cc7c(cc6C5)C(=O)N(C5CCC(=O)NC5=O)C7=O)CC4)cc3)CC2)CN1c1ccc(C#N)c(Cl)c1 (stereo partly shown) [compound 195]
DC50 (AR): < 10 nM | IC50 (VCaP cells; Homo sapiens, VCaP): < 100 nM | IC50 (LNCaP cells; Homo sapiens, LNCaP): < 10 nM

C[C@H]1CC2(CCN(c3cnc(CN4CCN(C5CCN(c6ccc7c(c6)C(=O)N(C6CCC(=O)NC6=O)C7=O)CC5)CC4)nc3)CC2)CN1c1ccc(C#N)c(Cl)c1 (stereo partly shown) [compound 171]
DC50 (AR): < 10 nM | IC50 (VCaP cells; Homo sapiens, VCaP): < 100 nM | IC50 (LNCaP cells; Homo sapiens, LNCaP): < 10 nM

C[C@H]1CC2(CCN(c3ncc(C(=O)N4CCC(N5Cc6cc7c(cc6C5)C(=O)N(C5CCC(=O)NC5=O)C7=O)CC4)s3)CC2)CN1c1ccc(C#N)c(Cl)c1 (stereo partly shown) [compound 139]
DC50 (AR): < 10 nM | Dmax (AR): 70 to 90% | IC50 (VCaP cells; Homo sapiens, VCaP): < 100 nM | IC50 (LNCaP cells; Homo sapiens, LNCaP): < 100 nM

C[C@H]1CC2(CCN(c3ccc(N4CCC(N(C)C5CN(c6ccc7c(c6)C(=O)N(C6CCC(=O)NC6=O)C7=O)C5)CC4)cc3)CC2)CN1c1ccc(C#N)c(Cl)c1 (stereo partly drawn) [compound 119, 2-chloro-4-((3S)-8-(4-(4-((1-(2-(2,6-dioxopiperidin-3-yl)-1,3-dioxoisoindolin-5-yl)azetidin-3-yl)(methyl)amino)piperidin-1-yl)phenyl)-3-methyl-2,8-diazaspiro[4.5]decan-2-yl)benzonitrile]
Dmax (AR): > 90% | IC50 (VCaP cells; Homo sapiens, VCaP): < 10 nM | IC50 (LNCaP cells; Homo sapiens, LNCaP): < 10 nM

C[C@H]1CC2(CCN(c3cnc(N4CCN(CC5CN(c6ccc7c(c6)C(=O)N(C6CCC(=O)NC6=O)C7=O)C5)CC4)cn3)CC2)CN1c1ccc(C#N)c(Cl)c1 (stereo partly shown) [compound 49]
DC50 (AR): < 1 nM | Dmax (AR): > 90% | IC50 (VCaP cells; Homo sapiens, VCaP): < 10 nM | IC50 (LNCaP cells; Homo sapiens, LNCaP): < 10 nM

C[C@H]1CC2(CCN(c3ncc(C(=O)N4CCN(C5CN(c6ccc7c(c6)C(=O)N(C6CCC(=O)NC6=O)C7=O)C5)CC4)s3)CC2)CN1c1ccc(C#N)c(Cl)c1 (stereo partly shown) [compound 136]
DC50 (AR): < 1 nM | Dmax (AR): > 90% | IC50 (VCaP cells; Homo sapiens, VCaP): < 10 nM | IC50 (LNCaP cells; Homo sapiens, LNCaP): < 10 nM

C[C@H]1CC2(CCN(c3ccc(N4CC(N(C)C5CN(c6ccc7c(c6)C(=O)N(C6CCC(=O)NC6=O)C7=O)C5)C4)cc3)CC2)CN1c1ccc(C#N)c(Cl)c1 (stereo partly shown) [compound 121]
DC50 (AR): < 100 nM | Dmax (AR): 70 to 90% | IC50 (VCaP cells; Homo sapiens, VCaP): < 100 nM | IC50 (LNCaP cells; Homo sapiens, LNCaP): < 100 nM

C[C@H]1CC2(CCN(c3ccc(OC4CCN(C5CN(c6cc7c(cc6F)C(=O)N(C6CCC(=O)NC6=O)C7=O)C5)CC4)nc3)CC2)CN1c1ccc(C#N)c(Cl)c1 (stereo partly shown) [compound 133]
DC50 (AR): < 1 nM | Dmax (AR): > 90% | IC50 (VCaP cells; Homo sapiens, VCaP): < 10 nM | IC50 (LNCaP cells; Homo sapiens, LNCaP): < 10 nM

C[C@H]1CC2(CCN(c3ccc(OC4CN(C5CCN(c6ccc7c(c6)C(=O)N(C6CCC(=O)NC6=O)C7=O)CC5)C4)nn3)CC2)CN1c1ccc(C#N)c(Cl)c1 (stereo partly shown) [compound 74]
DC50 (AR): < 100 nM | Dmax (AR): 50 to 70% | IC50 (VCaP cells; Homo sapiens, VCaP): < 1000 nM | IC50 (LNCaP cells; Homo sapiens, LNCaP): < 1000 nM

C[C@H]1CC2(CCN(c3ccc(OC4CN(C5CN(c6ccc7c(c6)C(=O)N(C6CCC(=O)NC6=O)C7=O)C5)C4)cc3)CC2)CN1c1ccc(C#N)c(Cl)c1 (stereo partly shown) [compound 59]
DC50 (AR): < 1 nM | Dmax (AR): > 90% | IC50 (VCaP cells; Homo sapiens, VCaP): < 10 nM | IC50 (LNCaP cells; Homo sapiens, LNCaP): < 10 nM

C=C1CCC(N2C(=O)c3ccc(N4CCC(N5CCC(Cc6ccc(N7CCC8(CC7)C[C@H](C)N(c7ccc(C#N)c(Cl)c7)C8)cc6)CC5)CC4)cc3C2=O)C(=O)N1 (stereo partly shown) [compound 24]
Dmax (AR): > 90% | IC50 (VCaP cells; Homo sapiens, VCaP): < 10 nM | IC50 (LNCaP cells; Homo sapiens, LNCaP): < 10 nM

C[C@H]1CC2(CCN(c3ccc(CN4CCC(C5CN(c6ccc7c(c6)C(=O)N(C6CCC(=O)NC6=O)C7=O)C5)CC4)c(F)c3)CC2)CN1c1ccc(C#N)c(Cl)c1 (stereo partly shown) [compound 9]
DC50 (AR): < 1 nM | Dmax (AR): > 90% | IC50 (VCaP cells): < 10 nM | IC50 (LNCaP cells): < 10 nM

C[C@H]1CC2(CCN(c3ccc(S(=O)(=O)C4CCN(CC5CCN(c6ccc7c(c6)C(=O)N(C6CCC(=O)NC6=O)C7=O)CC5)CC4)cc3)CC2)CN1c1ccc(C#N)c(Cl)c1 (stereo partly shown) [compound 162]
DC50 (AR): < 1 nM | IC50 (VCaP cells; Homo sapiens, VCaP): < 10 nM | IC50 (LNCaP cells; Homo sapiens, LNCaP): < 10 nM

C[C@H]1CC2(CCN(c3ccc(CC4CCN(CC5CN(c6ccc7c(c6)C(=O)N(C6CCC(=O)NC6=O)C7=O)C5)CC4)cc3)CC2)CN1c1ccc(C#N)c(Cl)c1 (stereo partly shown) [compound 25]
DC50 (AR): < 1 nM | Dmax (AR): > 90% | IC50 (VCaP cells; Homo sapiens, VCaP): < 10 nM | IC50 (LNCaP cells; Homo sapiens, LNCaP): < 10 nM

C[C@H]1CC2(CCN(c3ccc(N4CCC(CN5CCN(c6ccc7c(c6)C(=O)N(C6CCC(=O)NC6=O)C7=O)CC5)CC4)nn3)CC2)CN1c1ccc(C#N)c(Cl)c1 (stereo partly shown) [compound 55]
DC50 (AR): < 10 nM | Dmax (AR): > 90% | IC50 (VCaP cells; Homo sapiens, VCaP): < 100 nM | IC50 (LNCaP cells; Homo sapiens, LNCaP): < 100 nM

C[C@H]1CC2(CCN(c3ccc(N4CCN(CC5CN(c6ccc7c(c6)C(=O)N(C6CCC(=O)NC6=O)C7=O)C5)CC4)cc3F)CC2)CN1c1ccc(C#N)c(Cl)c1 (stereo partly shown) [compound 37]
DC50 (AR): < 1 nM | Dmax (AR): > 90% | IC50 (VCaP cells; Homo sapiens, VCaP): < 10 nM | IC50 (LNCaP cells; Homo sapiens, LNCaP): < 10 nM

C[C@H]1CC2(CCN(c3ccc(C4CCN(CC5CN(c6ccc7c(c6)C(=O)N(C6CCC(=O)NC6=O)C7=O)C5)CC4)cc3)CC2)CN1c1ccc(C#N)c(Cl)c1 (stereo partly shown) [compound 21]
DC50 (AR): < 1 nM | Dmax (AR): > 90% | IC50 (VCaP cells; Homo sapiens, VCaP): < 10 nM | IC50 (LNCaP cells; Homo sapiens, LNCaP): < 10 nM

C[C@H]1CC2(CCN(c3ccc(OC4CCN(C5CN(c6ccc7c(c6)C(=O)N(C6CCC(=O)NC6=O)C7=O)C5)CC4)cn3)CC2)CN1c1ccc(C#N)c(Cl)c1 (stereo partly drawn) [compound 61, 2-chloro-4-((3S)-8-(5-((1-(1-(2-(2,6-dioxopiperidin-3-yl)-1,3-dioxoisoindolin-5-yl)azetidin-3-yl)piperidin-4-yl)oxy)pyridin-2-yl)-3-methyl-2,8-diazaspiro-[4.5]decan-2-yl)benzonitrile]
Dmax (AR): > 90% | IC50 (VCaP cells; Homo sapiens, VCaP): < 10 nM | IC50 (LNCaP cells; Homo sapiens, LNCaP): < 10 nM

C[C@H]1CC2(CCN(c3ccc(CN4CCC(N5CCN(c6ccc7c(c6)C(=O)N(C6CCC(=O)NC6=O)C7=O)CC5)CC4)nn3)CC2)CN1c1ccc(C#N)c(Cl)c1 (stereo partly shown) [compound 202]
DC50 (AR): < 1 nM | IC50 (VCaP cells; Homo sapiens, VCaP): < 10 nM | IC50 (LNCaP cells; Homo sapiens, LNCaP): < 10 nM

C[C@H]1CC2(CCN(c3cnc(CN4CCN(C5CN(c6cc7c(cc6F)C(=O)N(C6CCC(=O)NC6=O)C7=O)C5)CC4)nc3)CC2)CN1c1ccc(C#N)c(Cl)c1 (stereo partly shown) [compound 175]
DC50 (AR): < 1 nM | IC50 (VCaP cells; Homo sapiens, VCaP): < 10 nM | IC50 (LNCaP cells; Homo sapiens, LNCaP): < 10 nM

C[C@H]1CC2(CCN(c3ccc(CN4CCN(C5CN(c6cc7c(cc6F)C(=O)N(C6CCC(=O)NC6=O)C7=O)C5)CC4)nc3)CC2)CN1c1ccc(C#N)c(Cl)c1 (stereo partly shown) [compound 172]
DC50 (AR): < 1 nM | IC50 (VCaP cells; Homo sapiens, VCaP): < 10 nM | IC50 (LNCaP cells; Homo sapiens, LNCaP): < 10 nM

C[C@H]1CC2(CCN(c3ccc(CN4CCN(C5CCN(c6ccc7c(c6)C(=O)N(C6CCC(=O)NC6=O)C7=O)CC5)CC4)nc3)CC2)CN1c1ccc(C#N)c(Cl)c1 (stereo partly shown) [compound 182]
DC50 (AR): < 1 nM | IC50 (VCaP cells; Homo sapiens, VCaP): < 100 nM | IC50 (LNCaP cells; Homo sapiens, LNCaP): < 10 nM

C[C@H]1CC2(CCN(c3ccc(S(=O)(=O)N4CCC(N5Cc6cc7c(cc6C5)C(=O)N(C5CCC(=O)NC5=O)C7=O)CC4)cc3)CC2)CN1c1ccc(C#N)c(Cl)c1 (stereo partly shown) [compound 4]
DC50 (AR): < 1 nM | Dmax (AR): 70 to 90% | IC50 (VCaP cells; Homo sapiens, VCaP): < 10 nM | IC50 (LNCaP cells; Homo sapiens, LNCaP): < 10 nM
